For 17 compounds, EC50 results are on record in patent US11046680B1, “Heteroaryl-substituted triazoles as APJ receptor agonists” (priority 2016, dated 2021).

A word on the EC50: it is the concentration giving half of the maximal effect.

The target of this assay is human APJ receptor (Homo sapiens (Human), UniProt P35414). In words: biochemical. It counts as biochemical. To be noted: [35S]GTPγS binding, CHO membranes expressing human APJ receptor; read-out: Activity hAPJ SPA EC50 IP. Here is the method:
The human APJ receptor was cloned by polymerase chain reaction and the gene encoding the receptor was subcloned in pFLAG-CMV™-3 expression vector (Sigma, Saint Louis, Mo. USA) in-house at Amgen. A GTPγS binding assay was performed on membranes prepared from CHO cells stably expressing human APJ receptor. The optimum experimental conditions for the concentrations of GDP, MgCl2, and NaCl in the assay buffer were initially determined. […] Incubation was at RT for 90 min and the microplate was read using a ViewLux™ ultra HTS Microplate Imager (PerkinElmer, Inc.).
Background: GTPγS resists hydrolysis and so accumulates on activated G proteins.

human APJ receptor, sequence (P35414 whole entry): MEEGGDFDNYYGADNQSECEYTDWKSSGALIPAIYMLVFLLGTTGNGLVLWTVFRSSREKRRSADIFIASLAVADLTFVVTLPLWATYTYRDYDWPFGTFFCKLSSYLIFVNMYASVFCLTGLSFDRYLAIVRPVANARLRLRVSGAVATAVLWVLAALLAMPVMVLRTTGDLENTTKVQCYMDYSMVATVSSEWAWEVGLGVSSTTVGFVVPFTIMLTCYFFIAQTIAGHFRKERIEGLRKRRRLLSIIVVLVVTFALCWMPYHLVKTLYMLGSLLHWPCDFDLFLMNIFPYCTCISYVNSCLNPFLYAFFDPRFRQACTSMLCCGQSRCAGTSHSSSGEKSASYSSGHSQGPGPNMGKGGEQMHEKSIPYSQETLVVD

For `COc1cccc(OC)c1-n1c(NS(=O)(=O)[C@@H](C)Cc2ncc(F)cn2)nnc1-c1cccnn1` (single isomer, unassigned) [Example 32.0, (2S)-N-(4-(2,6-dimethoxyphenyl)-5-(3-pyridazinyl)-4H-1,2,4-triazol-3-yl)-1-(5-fluoro-2-pyrimidinyl)-2-propanesulfonamide or (2R)-N-(4-(2,6-dimethoxyphenyl)-5-(3-pyridazinyl)-4H-1,2,4-triazol-3-yl)-1-(5-fluoro-2-pyrimidinyl)-2-propanesulfonamide], the concentration for a half-maximal effect (EC50) was 17 nM. Take `COc1cccc(OC)c1-n1c(NS(=O)(=O)[C@@H](C)Cc2ncc(F)cn2)nnc1-c1cccnn1` (single isomer, unassigned) [Example 33.0, (2S)-N-(4-(2,6-dimethoxyphenyl)-5-(3-pyridazinyl)-4H-1,2,4-triazol-3-yl)-1-(5-fluoro-2-pyrimidinyl)-2-propanesulfonamide or (2R)-N-(4-(2,6-dimethoxyphenyl)-5-(3-pyridazinyl)-4H-1,2,4-triazol-3-yl)-1-(5-fluoro-2-pyrimidinyl)-2-propanesulfonamide]: the EC50 was determined as 190 nM. Consider `COc1cccc(OC)c1-n1c(NS(=O)(=O)[C@H](C)Cc2ncc(F)cn2)nnc1-c1ccn(C)c1` (single isomer, unassigned) [Example 34.0, (R)-N-(4-(2,6-dimethoxyphenyl)-5-(1-methyl-1H-pyrrol-3-yl)-4H-1,2,4-triazol-3-yl)-1-(5-fluoropyrimidin-2-yl)propane-2-sulfonamide or (S)-N-(4-(2,6-dimethoxyphenyl)-5-(1-methyl-1H-pyrrol-3-yl)-4H-1,2,4-triazol-3-yl)-1-(5-fluoropyrimidin-2-yl)propane-2-sulfonamide], for which the 50% effective concentration (EC50) is 4.5 nM. With `COc1cccc(OC)c1-n1c(NS(=O)(=O)[C@H](C)Cc2ncc(F)cn2)nnc1-c1ccn(C)c1` (single isomer, unassigned) [Example 35.0, (R)-N-(4-(2,6-dimethoxyphenyl)-5-(1-methyl-1H-pyrrol-3-yl)-4H-1,2,4-triazol-3-yl)-1-(5-fluoropyrimidin-2-yl)propane-2-sulfonamide or (S)-N-(4-(2,6-dimethoxyphenyl)-5-(1-methyl-1H-pyrrol-3-yl)-4H-1,2,4-triazol-3-yl)-1-(5-fluoropyrimidin-2-yl)propane-2-sulfonamide], the 50% effective concentration (EC50) worked out at 27 nM. Under `COc1cccc(OC)c1-n1c(NS(=O)(=O)[C@H](C)Cc2ncc(F)cn2)nnc1-c1ccncn1` (single isomer, unassigned) [Example 38.0, (R)-N-(4-(2,6-dimethoxyphenyl)-5-(pyrimidin-4-yl)-4H-1,2,4-triazol-3-yl)-1-(5-fluoropyrimidin-2-yl)propane-2-sulfonamide or (R)-N-(4-(2,6-dimethoxyphenyl)-5-(pyrimidin-4-yl)-4H-1,2,4-triazol-3-yl)-1-(5-fluoropyrimidin-2-yl)propane-2-sulfonamide] stands 84 nM.

With `COc1cccc(OC)c1-n1c(NS(=O)(=O)[C@H](C)Cc2ncc(F)cn2)nnc1-c1ccncn1` (single isomer, unassigned) [Example 39.0, (R)-N-(4-(2,6-dimethoxyphenyl)-5-(pyrimidin-4-yl)-4H-1,2,4-triazol-3-yl)-1-(5-fluoropyrimidin-2-yl)propane-2-sulfonamide or (R)-N-(4-(2,6-dimethoxyphenyl)-5-(pyrimidin-4-yl)-4H-1,2,4-triazol-3-yl)-1-(5-fluoropyrimidin-2-yl)propane-2-sulfonamide], the EC50 came to 230 nM. Regarding `COc1cccc(OC)c1-n1c(NS(=O)(=O)[C@H](C)Cc2ncc(F)cn2)nnc1-c1ncccn1` (single isomer, unassigned) [Example 58.0, (R)-N-(4-(2,6-dimethoxyphenyl)-5-(pyrimidin-2-yl)-4H-1,2,4-triazol-3-yl)-1-(5-fluoropyrimidin-2-yl)propane-2-sulfonamide or (S)-N-(4-(2,6-dimethoxyphenyl)-5-(pyrimidin-2-yl)-4H-1,2,4-triazol-3-yl)-1-(5-fluoropyrimidin-2-yl)propane-2-sulfonamide], the EC50 was 17 nM. Turning to `COc1cccc(OC)c1-n1c(NS(=O)(=O)[C@H](C)Cc2ncc(F)cn2)nnc1-c1ncccn1` (single isomer, unassigned) [Example 59.0, (R)-N-(4-(2,6-dimethoxyphenyl)-5-(pyrimidin-2-yl)-4H-1,2,4-triazol-3-yl)-1-(5-fluoropyrimidin-2-yl)propane-2-sulfonamide or (S)-N-(4-(2,6-dimethoxyphenyl)-5-(pyrimidin-2-yl)-4H-1,2,4-triazol-3-yl)-1-(5-fluoropyrimidin-2-yl)propane-2-sulfonamide], the 50% effective concentration (EC50) amounted to 110 nM. `COc1cccc(OC)c1-n1c(NS(=O)(=O)[C@H](C)Cc2ncc(F)cn2)nnc1-c1cc(C)no1` (single isomer, unassigned) [Example 63.0, (R)-N-(4-(2,6-dimethoxyphenyl)-5-(3-methylisoxazol-5-yl)-4H-1,2,4-triazol-3-yl)-1-(5-fluoropyrimidin-2-yl)propane-2-sulfonamide or (R)-N-(4-(2,6-dimethoxyphenyl)-5-(3-methylisoxazol-5-yl)-4H-1,2,4-triazol-3-yl)-1-(5-fluoropyrimidin-2-yl)propane-2-sulfonamide]: the 50% effective concentration (EC50) is 85 nM. Consider `COc1cccc(OC)c1-n1c(NS(=O)(=O)[C@H](C)Cc2ncc(F)cn2)nnc1-c1conc1C` (single isomer, unassigned) [Example 65.0, (R)-N-(4-(2,6-dimethoxyphenyl)-5-(3-methylisoxazol-4-yl)-4H-1,2,4-triazol-3-yl)-1-(5-fluoropyrimidin-2-yl)propane-2-sulfonamide or (S)-N-(4-(2,6-dimethoxyphenyl)-5-(3-methylisoxazol-4-yl)-4H-1,2,4-triazol-3-yl)-1-(5-fluoropyrimidin-2-yl)propane-2-sulfonamide], for which the EC50 worked out at 76 nM. Consider `CNC(=O)n1ccc(-c2nnc(NS(=O)(=O)[C@@H](C)Cc3ncc(F)cn3)n2-c2c(OC)cccc2OC)n1` (single isomer, unassigned) [Example 73.0, (R)-3-(4-(2,6-dimethoxyphenyl)-5-(2-(5-fluoropyrimidin-2-yl)-1-methylethylsulfonamido)-4H-1,2,4-triazol-3-yl)-N-methyl-1H-pyrazole-1-carboxamide or (S)-3-(4-(2,6-dimethoxyphenyl)-5-(2-(5-fluoropyrimidin-2-yl)-1-methylethylsulfonamido)-4H-1,2,4-triazol-3-yl)-N-methyl-1H-pyrazole-1-carboxamide], for which the EC50 stood at 29 nM. Turning to `CNC(=O)n1ccc(-c2nnc(NS(=O)(=O)[C@@H](C)Cc3ncc(F)cn3)n2-c2c(OC)cccc2OC)n1` (single isomer, unassigned) [Example 74.0], the EC50 is 22 nM. In the case of `COc1cccc(OC)c1-n1c(NS(=O)(=O)[C@H](C)Cc2ncc(F)cn2)nnc1-c1nc(C)cs1` (single isomer, unassigned) [Example 101.0, (R)-N-(4-(2,6-Dimethoxyphenyl)-5-(4-methylthiazol-2-yl)-4H-1,2,4-triazol-3-yl)-1-(5-fluoropyrimidin-2-yl)propane-2-sulfonamide or (S)-N-(4-(2,6-dimethoxyphenyl)-5-(4-methylthiazol-2-yl)-4H-1,2,4-triazol-3-yl)-1-(5-fluoropyrimidin-2-yl)propane-2-sulfonamide] it was 0.7 nM. Under `COc1cccc(OC)c1-n1c(NS(=O)(=O)[C@H](C)Cc2ncc(F)cn2)nnc1-c1nc(C)cs1` (single isomer, unassigned) [Example 102.0, (R)-N-(4-(2,6-Dimethoxyphenyl)-5-(4-methylthiazol-2-yl)-4H-1,2,4-triazol-3-yl)-1-(5-fluoropyrimidin-2-yl)propane-2-sulfonamide or (S)-N-(4-(2,6-dimethoxyphenyl)-5-(4-methylthiazol-2-yl)-4H-1,2,4-triazol-3-yl)-1-(5-fluoropyrimidin-2-yl)propane-2-sulfonamide] stands 4.1 nM; under `CCc1csc(-c2nnc(NS(=O)(=O)[C@H](C)Cc3ncc(F)cn3)n2-c2c(OC)cccc2OC)n1` (single isomer, unassigned) [Example 104.0, (R)-N-(4-(2,6-dimethoxyphenyl)-5-(4-ethylthiazol-2-yl)-4H-1,2,4-triazol-3-yl)-1-(5-fluoropyrimidin-2-yl)propane-2-sulfonamide or (S)-N-(4-(2,6-dimethoxyphenyl)-5-(4-ethylthiazol-2-yl)-4H-1,2,4-triazol-3-yl)-1-(5-fluoropyrimidin-2-yl)propane-2-sulfonamide], 4.6 nM; under `CCc1csc(-c2nnc(NS(=O)(=O)[C@H](C)Cc3ncc(F)cn3)n2-c2c(OC)cccc2OC)n1` (single isomer, unassigned) [Example 105.0, (R)-N-(4-(2,6-dimethoxyphenyl)-5-(4-ethylthiazol-2-yl)-4H-1,2,4-triazol-3-yl)-1-(5-fluoropyrimidin-2-yl)propane-2-sulfonamide or (S)-N-(4-(2,6-dimethoxyphenyl)-5-(4-ethylthiazol-2-yl)-4H-1,2,4-triazol-3-yl)-1-(5-fluoropyrimidin-2-yl)propane-2-sulfonamide], 1.4 nM. `COc1cccc(OC)c1-n1c(NS(=O)(=O)[C@H](C)[C@@H](OC)c2ncc(F)cn2)nnc1-c1ccn(C)n1` (single isomer, unassigned) [Example 117.0, (1S,2R)-N-(4-(2,6-dimethoxyphenyl)-5-(1-methyl-1H-pyrazol-3-yl)-4H-1,2,4-triazol-3-yl)-1-(5-fluoropyrimidin-2-yl)-1-methoxypropane-2-sulfonamide or (1R,2S)-N-(4-(2,6-dimethoxyphenyl)-5-(1-methyl-1H-pyrazol-3-yl)-4H-1,2,4-triazol-3-yl)-1-(5-fluoropyrimidin-2-yl)-1-methoxypropane-2-sulfonamide]: the concentration giving a half-maximal response (EC50) stood at 0.69 nM.
